11 compounds from patent US20230083012A1, “DIHYDROPYRIMIDINE DERIVATIVES AND USES THEREOF IN THE TREATMENT OF HBV INFECTION OR OF HBV-INDUCED DISEASES” (priority 2019, published 2023) can be followed below.

In series [1] the test system is HBV. Nature of the series: Anti-HBV activity in HepG2.2.15 cells (HBV DNA in culture medium by qPCR). It is filed as cell-based. The following applies: Hepatitis B virus, HepG2.2.15, 144 h, HepG2.2.15 cells, 6 days treatment, HBV DNA in culture medium quantified by real-time PCR; read-out: EC50. The essentials:
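HepG2.2.15 cells in 2% FBS medium at 37 °C were treated with compounds for 6 days, with medium and compound refreshed at day 3; 1:3 dilutions, 8 concentrations in triplicate, top 10 or 1 uM. HBV DNA in culture medium quantified by qPCR to derive EC50; CC50 from parallel plates (top 100 uM).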
For orientation: Quantitative PCR measures a nucleic acid by following its amplification.

The nature of series [2]: Cytotoxicity determination in HepG2.2.15 cells (CCK-8 cell viability). The class given is cell-based. The following applies: human, 6 days treatment, CCK-8 assay, highest concentration 100 uM. Put shortly: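 HepG2.2.15 cells seeded at 5,000 cells/well in 2% FBS medium, exposed 6 days to compounds (8-point 1:3 dilutions from 100 uM, triplicate), refreshed at day 3. Viability read by CCK-8 after 2.5 h at 37° C, absorbance 450 nm with 630 nm reference; CC50 calculated.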
(Tetrazolium assays rely on reduction of a dye to a coloured formazan, in cell work by metabolically active cells.)

Where only a bound is given, the exact number is not on record here.

On to `CCOC(=O)C1=C(CN2CC(F)(F)[C@H]3[C@@H]2CCN3CCC(C)(C)C(=O)O)NC(c2nccs2)=N[C@@H]1c1ccc(F)c(F)c1F` (single isomer, unassigned) [Compound 140, (cis)-4-(4-((5-(ethoxycarbonyl)-2-(thiazol-2-yl)-6-(2,3,4-trifluorophenyl)-3,6-dihydropyrimidin-4-yl)methyl)-6,6-difluorohexahydropyrrolo[3,2-b]pyrrol-1(2H)-yl)-2,2-dimethylbutanoic acid], for which the EC50 (as a rule, the concentration that produces a half-maximal response) in series [1] is 0.007 µM. In addition, in series [2], the CC50 (as a rule, the concentration giving 50% cytotoxicity) at 6 days worked out at 36.7 µM.

For `CCOC(=O)C1=C(CN2CC(F)(F)[C@H]3[C@@H]2CCN3CCC(C)(C)C(=O)O)NC(c2nccs2)=N[C@H]1c1ccc(F)cc1Cl` (single isomer, unassigned) [Compound 141], the EC50 in series [1] stood at 0.0035 µM. The compound further returned a CC50 at 6 days in series [2] of 26.7 µM.

As for `CCOC(=O)C1=C(CN2CC(F)(F)[C@H]3[C@@H]2CCN3CCC(C)(C)C(=O)O)NC(c2nccs2)=N[C@H]1c1cccc(F)c1F` (single isomer, unassigned) [Compound 142], the EC50 in series [1] is 0.008 µM. The CC50 at 6 days in series [2] was above 25 µM.

For the compound `CCOC(=O)C1=C(CN2CC(F)(F)[C@H]3[C@@H]2CCN3C[C@H]2C[C@H](C(=O)O)C2)NC(c2nccs2)=N[C@H]1c1cccc(F)c1C` (single isomer, unassigned) [Compound 143A], in series [1], the EC50 was found to be 0.0011 µM. Further, in series [2], half-maximal cytotoxicity (CC50 at 6 days) was put at 19.2 µM.

In the case of `CCOC(=O)C1=C(CN2CC(F)(F)[C@H]3[C@@H]2CCN3C[C@H]2C[C@@H](C(=O)O)C2)NC(c2nccs2)=N[C@H]1c1cccc(F)c1C` (single isomer, unassigned) [Compound 143B], the EC50 in series [1] is 0.0046 µM. Besides, the CC50 at 6 days in series [2] stood at 22.8 µM.

With `CCOC(=O)C1=C(CN2CC(F)(F)[C@H]3[C@@H]2CCN3CCCC(C)(C)C(=O)O)NC(c2nccs2)=N[C@H]1c1cccc(F)c1C` (single isomer, unassigned) [Compound 144], in series [1], the EC50 is 0.0198 µM. This compound displayed a CC50 at 6 days in series [2] of 20.2 µM.

Consider `CCOC(=O)C1=C(CN2CC(F)(F)[C@H]3[C@@H]2CCN3CCC(C)(C)C(=O)O)NC(c2nccs2)=N[C@H]1c1cccc(F)c1Cl` (single isomer, unassigned) [Compound 145, 4-((cis)-4-((6-(2-chloro-3-fluorophenyl)-5-(ethoxycarbonyl)-2-(thiazol-2-yl)-3,6-dihydropyrimidin-4-yl)methyl)-6,6-difluorohexahydropyrrolo[3,2-b]pyrrol-1(2H)-yl)-2,2-dimethylbutanoic acid], for which the EC50 in series [1] turned out to be 0.0009 µM. In series [2], this compound returned a CC50 at 6 days of 26 µM.

Take `CCOC(=O)C1=C(CN2CC(F)(F)[C@H]3[C@@H]2CCN3CCC(C)(C)C(=O)O)NC(c2nccn2C)=N[C@H]1c1cccc(F)c1C` (single isomer, unassigned) [Compound 146, 4-((cis)-4-((5-(Ethoxycarbonyl)-6-(3-fluoro-2-methylphenyl)-2-(1-methyl-1H-imidazol-2-yl)-3,6-dihydropyrimidin-4-yl)methyl)-6,6-difluorohexahydropyrrolo[3,2-b]pyrrol-1(2H)-yl)-2,2-dimethylbutanoic acid]: in series [1], the EC50 turned out to be 0.0131 µM. In series [2], this compound showed a CC50 at 6 days of 32.2 µM.

Turning to `CCOC(=O)C1=C(CN2CC(F)(F)[C@H]3[C@@H]2CCN3CCC(C)C(=O)O)NC(c2nccs2)=N[C@H]1c1cccc(F)c1C` (single isomer, unassigned) [Compound 147], the EC50 in series [1] is below 0.0005 µM. The same compound returned a CC50 at 6 days in series [2] of 34.6 µM.

With `CCOC(=O)C1=C(CN2CC(F)(F)[C@H]3[C@@H]2CCN3CCOC(C)C(=O)O)NC(c2nccs2)=N[C@H]1c1cccc(F)c1C` (single isomer, unassigned) [Compound 148], the EC50 in series [1] was determined as 0.0073 µM. The compound also registered a CC50 at 6 days in series [2] of 34.1 µM.

Take `CCOC(=O)C1=C(CN2CC(F)(F)[C@H]3[C@@H]2CCN3C[C@@H](C)C(=O)O)NC(c2nccs2)=N[C@H]1c1cccc(F)c1Cl` (single isomer, unassigned) [Compound 149A]: in series [1], the EC50 is below 0.0005 µM. In series [2], this compound gave a CC50 at 6 days of 21.8 µM.
